Experimental data as given in patent US9346786B2, “Pyrrolidine compounds” (Hoffmann-La Roche Inc., priority 2009, dated 2016).

target: recombinant human NK3 receptor (Homo sapiens (Human), UniProt P29371); test: biochemical; format: binding; settings: [3H]SR142801, membranes of HEK293 cells transiently expressing recombinant human NK3 receptor; read-out: Data Ki (hNK-3 receptor affinity)
Sequence (P29371 whole entry): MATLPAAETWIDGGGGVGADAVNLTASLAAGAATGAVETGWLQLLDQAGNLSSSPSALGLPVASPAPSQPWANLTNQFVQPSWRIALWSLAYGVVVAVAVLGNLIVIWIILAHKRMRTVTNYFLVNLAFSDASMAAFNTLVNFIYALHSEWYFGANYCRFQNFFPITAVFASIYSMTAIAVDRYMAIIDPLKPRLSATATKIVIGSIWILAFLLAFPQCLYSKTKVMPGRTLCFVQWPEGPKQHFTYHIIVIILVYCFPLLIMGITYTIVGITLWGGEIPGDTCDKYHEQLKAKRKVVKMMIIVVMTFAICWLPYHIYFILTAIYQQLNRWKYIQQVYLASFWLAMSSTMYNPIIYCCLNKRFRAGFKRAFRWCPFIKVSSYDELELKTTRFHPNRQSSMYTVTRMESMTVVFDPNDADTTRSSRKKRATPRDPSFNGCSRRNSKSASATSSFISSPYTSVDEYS

Structure (SMILES) | Ki [nM]
CCN(C(=O)Oc1ccc(F)cc1)[C@@H]1CN(C(=O)C2CCN(c3ccc(Cl)cn3)CC2)C[C@H]1c1ccc(F)c(F)c1 [Example 49, [(3S,4R)-1-(5′-Chloro-3,4,5,6-tetrahydro-2H-[1,2′]bipyridinyl-4-carbonyl)-4-(3,4-difluoro-phenyl)-pyrrolidin-3-yl]-ethyl-carbamic acid 4-fluoro-phenyl ester] | 5
CCN(C(=O)Oc1ccc(F)cc1)[C@@H]1CN(C(=O)C2CCN(C(=O)C3(C(F)(F)F)CC3)CC2)C[C@H]1c1ccc(Cl)cc1 [Example 95, {(3S,4R)-4-(4-Chloro-phenyl)-1-[1-(1-trifluoromethyl-cyclopropanecarbonyl)-piperidine-4-carbonyl]-pyrrolidin-3-yl}-ethyl-carbamic acid 4-fluoro-phenyl ester] | 6.1
CCN(C(=O)Oc1ccc(F)cc1)[C@@H]1CN(C(=O)C2CCN(C(=O)OC(C)(C)C)CC2)C[C@H]1c1ccc(Cl)c(F)c1 [Example 39, 4-{(3R,4S)-3-(4-Chloro-3-fluoro-phenyl)-4-[ethyl-(4-fluoro-phenoxycarbonyl)-amino]-pyrrolidine-1-carbonyl}-piperidine-1-carboxylic acid tert-butyl ester] | 4
CCN(CC)CC(=O)c1ccc(N2CCC(C(=O)N3C[C@@H](N(CC)C(=O)Oc4ccc(F)cc4)[C@H](c4ccc(F)cc4)C3)CC2)nc1 [Example 122, [(3S,4R)-1-[5′-(2-Diethylamino-acetyl)-3,4,5,6-tetrahydro-2H-[1,2′]bipyridinyl-4-carbonyl]-4-(4-fluoro-phenyl)-pyrrolidin-3-yl]-ethyl-carbamic acid 4-fluoro-phenyl ester] | 69.6
CCN(C(=O)Oc1ccc(F)cc1)[C@@H]1CN(C(=O)C2CCN(C(=O)[C@@H]3CC(=O)N3)CC2)C[C@H]1c1ccc(F)c(F)c1 [Example 106, {(3S,4R)-4-(3,4-Difluoro-phenyl)-1-[1-((S)-4-oxo-azetidine-2-carbonyl)-piperidine-4-carbonyl]-pyrrolidin-3-yl}-ethyl-carbamic acid 4-fluoro-phenyl ester] | 66
CCN(C(=O)Oc1ccc(F)cc1)[C@@H]1CN(C(=O)C2CCNCC2)C[C@H]1c1ccc(Cl)c(F)c1 [Example 56, [(3S,4R)-4-(4-Chloro-3-fluoro-phenyl)-1-(piperidine-4-carbonyl)-pyrrolidin-3-yl]-ethyl-carbamic acid 4-fluoro-phenyl ester] | 267
CCN(C(=O)Oc1ccc(F)cc1)[C@@H]1CN(C(=O)C2CCN(C(=O)C3CCOCC3)CC2)C[C@H]1c1ccc(Cl)cc1 [Example 97, {(3S,4R)-4-(4-Chloro-phenyl)-1-[1-(tetrahydro-pyran-4-carbonyl)-piperidine-4-carbonyl]-pyrrolidin-3-yl}-ethyl-carbamic acid 4-fluoro-phenyl ester] | 4.4

same assay, conditions: read-out: Data Ki (hNK-3 receptor affinity)

Structure (SMILES) | Ki [nM]
CCN(C(=O)Oc1ccc(F)cc1)[C@@H]1CN(C(=O)C2CCN(C(=O)C3CCOC(C)(C)C3)CC2)C[C@H]1c1ccc(Cl)c(F)c1 (stereo partly drawn) [Example 73, {(3S,4R)-4-(4-Chloro-3-fluoro-phenyl)-1-[1-(2,2-dimethyl-tetrahydro-pyran-4-carbonyl)-piperidine-4-carbonyl]-pyrrolidin-3-yl}-ethyl-carbamic acid 4-fluoro-phenyl ester] | 3
CCN(C(=O)Oc1ccc(F)cc1)[C@@H]1CN(C(=O)C2CCN(C(=O)C3CCC(=O)N(C(C)C)C3)CC2)C[C@H]1c1ccc(Cl)cc1 (stereo partly drawn) [Example 104, {(3S,4R)-4-(4-Chloro-phenyl)-1-[1-(1-isopropyl-6-oxo-piperidine-3-carbonyl)-piperidine-4-carbonyl]-pyrrolidin-3-yl}-ethyl-carbamic acid 4-fluoro-phenyl ester] | 17.6
CCN(C(=O)Oc1ccc(F)cc1)[C@H]1CN(C(=O)C2CCN(c3ccc(C(F)(F)F)cn3)CC2)C[C@@H]1c1ccc(Cl)cc1 [Example 19, [(3R,4S)-4-(4-Chloro-phenyl)-1-(5′-trifluoromethyl-3,4,5,6-tetrahydro-2H-[1,2′]bipyridinyl-4-carbonyl)-pyrrolidin-3-yl]-ethyl-carbamic acid 4-fluoro-phenyl ester] | 88
